Measured values reported in ChEMBL document CHEMBL1131732, “Potential anxiolytic agents. 3. Novel A-ring modified pyrido[1,2-a]benzimidazoles” (Bioorg Med Chem Lett, 1999).
pIC50: −log10 of the molar value.

Legend:
[1] = biological target: GABA-A receptor; anion channel (Rattus norvegicus) (UniProt O09028+P15431+P18506+P18508+P19969+P20236+P23574+P23576+P28471+P28473+P30191+P62813+P63079+P63138+Q91ZM7+Q9ES14); experiment: GABA shift which is the ratio of binding in the absence and presence of GABA (1 mM) was determined; assay type: protein-complex assay
Mus musculus [2] = experiment: In vivo inhibitory activity against metrazole-induced seizures in mice by intraperitoneal administration; assay type: functional; details: ip
Mus musculus [3] = experiment: In vivo inhibitory activity against metrazole-induced seizures in mice by peroral administration; assay type: functional; details: po
Rattus norvegicus [4] = experiment: Inhibition of experimentally-induced conflict in rats following i.p. administration.; assay type: functional; details: ip, read-out: MED
Rattus norvegicus [5] = experiment: Inhibitory activity determined by experimentally-induced conflict test in rats after oral administration; assay type: functional; details: read-out: MED
[6] = biological target: GABA-A receptor; anion channel; experiment: In vitro inhibitory against Gamma-aminobutyric acid A receptor from rat cerebral cortex using [3H]flunitrazepam as the radioligand; assay type: tissue-based

## CN1C(=O)CN=C(c2ccccc2)c2cc(Cl)ccc21 [DIAZEPAM]
[1]
  GS: 2.2
Mus musculus [2]
  ED50: 0.11 mg/kg
Mus musculus [3]
  ED50: 0.5 mg/kg
Rattus norvegicus [4]
  minimal effective dose: 5 mg/kg
Rattus norvegicus [5]
  minimal effective dose: 10 mg/kg

## O=C(Nc1c(F)cccc1F)C1=C(O)CCn2c1nc1c(F)c(F)ccc12
[1]
  GS: 1.4
Mus musculus [2]
  ED50: 0.2 mg/kg
Mus musculus [3]
  ED50: 0.2 mg/kg
Rattus norvegicus [5]
  minimal effective dose: 3 mg/kg
[6]
  pIC50: 8.96

## O=C(Nc1c(F)cccc1F)C1=C(O)CCn2c1nc1cc(Cl)ccc12
[1]
  GS: 2.2
Mus musculus [2]
  ED50: 1 mg/kg
Mus musculus [3]
  ED50: 10 mg/kg
Rattus norvegicus [4]
  minimal effective dose: 10 mg/kg
Rattus norvegicus [5]
  minimal effective dose: 10 mg/kg
[6]
  pIC50: 8.20

## O=C(Nc1ccccc1)C1=C(O)CCn2c1nc1cc(Cl)ccc12
[1]
  GS: 1.6
Mus musculus [2]
  ED50: 1 mg/kg
Mus musculus [3]
  ED50: 20 mg/kg
Rattus norvegicus [4]
  minimal effective dose: 10 mg/kg
Rattus norvegicus [5]
  minimal effective dose: > 30 mg/kg
[6]
  pIC50: 7.18

## O=C(Nc1ccccc1)C1=C(O)CCn2c1nc1ncccc12
[1]
  GS: 3
Mus musculus [2]
  ED50: 3 mg/kg
Mus musculus [3]
  ED50: < 30 mg/kg
Rattus norvegicus [4]
  minimal effective dose: > 10 mg/kg
Rattus norvegicus [5]
  minimal effective dose: 30 mg/kg
[6]
  pIC50: 8.08

## COc1ccc2c(c1)nc1n2CCC(O)=C1C(=O)Nc1ccccc1F
[1]
  GS: 1.2
Mus musculus [2]
  ED50: > 10 mg/kg
Mus musculus [3]
  ED50: > 10 mg/kg
Rattus norvegicus [4]
  minimal effective dose: > 10 mg/kg
Rattus norvegicus [5]
  minimal effective dose: > 30 mg/kg
[6]
  pIC50: 8.21

## O=C(Nc1c(F)cccc1F)C1=C(O)CCn2c1nc1c(F)cc(F)cc12
[1]
  GS: 2.4
Mus musculus [2]
  ED50: > 1 mg/kg
Mus musculus [3]
  ED50: > 1 mg/kg
Rattus norvegicus [5]
  minimal effective dose: > 10 mg/kg
[6]
  pIC50: 7.52

## O=C(Nc1c(F)cccc1F)C1=C(O)CCn2c1nc1c(Cl)cccc12
[1]
  GS: 1.7
Mus musculus [2]
  ED50: 0.3 mg/kg
Mus musculus [3]
  ED50: 10 mg/kg
Rattus norvegicus [4]
  minimal effective dose: 10 mg/kg
Rattus norvegicus [5]
  minimal effective dose: > 10 mg/kg
[6]
  pIC50: 8.96

## Cc1cccc2c1nc1n2CCC(O)=C1C(=O)Nc1ccccc1
[1]
  GS: 2.8
Mus musculus [2]
  ED50: ~1 mg/kg
Mus musculus [3]
  ED50: > 10 mg/kg
Rattus norvegicus [4]
  minimal effective dose: > 10 mg/kg
Rattus norvegicus [5]
  minimal effective dose: > 30 mg/kg
[6]
  pIC50: 8.00

## O=C(Nc1ccccc1)C1=C(O)CCn2c1nc1cc(O)ccc12
[1]
  GS: 1.1
Mus musculus [2]
  ED50: > 30 mg/kg
Mus musculus [3]
  ED50: > 30 mg/kg
Rattus norvegicus [4]
  minimal effective dose: > 30 mg/kg
Rattus norvegicus [5]
  minimal effective dose: > 30 mg/kg
[6]
  pIC50: 7.39

## O=C(Nc1ccccc1F)C1=C(O)CCn2c1nc1cccnc12
[1]
  GS: 1.3
Mus musculus [2]
  ED50: > 10 mg/kg
Mus musculus [3]
  ED50: > 10 mg/kg
Rattus norvegicus [4]
  minimal effective dose: > 10 mg/kg
Rattus norvegicus [5]
  minimal effective dose: > 30 mg/kg
[6]
  pIC50: 6.54

## O=C(Nc1ccccc1F)C1=C(O)CCn2c1nc1cc(C(F)(F)F)ccc12
[1]
  GS: 4.7
Mus musculus [2]
  ED50: 1 mg/kg
Rattus norvegicus [5]
  minimal effective dose: > 10 mg/kg
[6]
  pIC50: 6.74

## O=C(Nc1ccccc1F)C1=C(O)CCn2c1nc1cccc(O)c12
[1]
  GS: 2.8
Mus musculus [2]
  ED50: > 1 mg/kg
Mus musculus [3]
  ED50: > 30 mg/kg
Rattus norvegicus [4]
  minimal effective dose: > 1 mg/kg
Rattus norvegicus [5]
  minimal effective dose: > 30 mg/kg
[6]
  pIC50: 7.85

## O=C(Nc1ccccc1)C1=C(O)CCn2c1nc1ccc(Cl)cc12
[1]
  GS: 2.1
Mus musculus [2]
  ED50: > 10 mg/kg
Mus musculus [3]
  ED50: > 30 mg/kg
Rattus norvegicus [4]
  minimal effective dose: > 10 mg/kg
Rattus norvegicus [5]
  minimal effective dose: 30 mg/kg
[6]
  pIC50: 6.76

## COc1cccc2c1nc1n2CCC(O)=C1C(=O)Nc1ccccc1F
[1]
  GS: 1.4
[6]
  pIC50: 8.11

## O=C(Nc1ccccc1F)C1=C(O)CCn2c1nc1c(O)cccc12
[1]
  GS: 3
Rattus norvegicus [5]
  minimal effective dose: > 10 mg/kg
[6]
  pIC50: 7.98

## O=C(Nc1c(F)cccc1F)C1=C(O)CCn2c1nc1cnccc12
[1]
  GS: 2.4
Mus musculus [2]
  ED50: > 10 mg/kg
Rattus norvegicus [5]
  minimal effective dose: 3 mg/kg
[6]
  pIC50: 7.75

## O=C(Nc1ccccc1F)C1=C(O)CCn2c1nc1cc(F)ccc12
[1]
  GS: 1.8
Mus musculus [2]
  ED50: < 1 mg/kg
Mus musculus [3]
  ED50: > 30 mg/kg
Rattus norvegicus [4]
  minimal effective dose: 10 mg/kg
Rattus norvegicus [5]
  minimal effective dose: > 30 mg/kg
[6]
  pIC50: 8.72

## O=C(Nc1ccccc1F)C1=C(O)CCn2c1nc1c3ccccc3ccc12
[1]
  GS: 2.8
Mus musculus [2]
  ED50: > 1 mg/kg
Mus musculus [3]
  ED50: > 30 mg/kg
Rattus norvegicus [5]
  minimal effective dose: > 10 mg/kg
[6]
  pIC50: 6.81

## O=C(Nc1c(F)cccc1F)C1=C(O)CCn2c1nc1ccc(F)c(F)c12
[1]
  GS: 1.7
Mus musculus [2]
  ED50: > 1 mg/kg
Mus musculus [3]
  ED50: > 1 mg/kg
Rattus norvegicus [5]
  minimal effective dose: > 10 mg/kg
[6]
  pIC50: 7.18

## O=C(Nc1ccccc1F)C1=C(O)CCn2c1nc1ccc(F)c(F)c12
[1]
  GS: 2.5
Mus musculus [2]
  ED50: > 1 mg/kg
Mus musculus [3]
  ED50: > 1 mg/kg
Rattus norvegicus [5]
  minimal effective dose: > 10 mg/kg
[6]
  pIC50: 6.07

## O=C(Nc1c(F)cccc1F)C1=C(O)CCn2c1nc1ncccc12
[1]
  GS: 1.8
Mus musculus [2]
  ED50: 3 mg/kg
Mus musculus [3]
  ED50: 30 mg/kg
Rattus norvegicus [4]
  minimal effective dose: > 10 mg/kg
Rattus norvegicus [5]
  minimal effective dose: > 10 mg/kg
[6]
  pIC50: 7.52

## COc1ccc2c(c1)nc1n2CCC(O)=C1C(=O)Nc1ccccc1
[1]
  GS: 2.5
Mus musculus [2]
  ED50: 3 mg/kg
Mus musculus [3]
  ED50: > 10 mg/kg
Rattus norvegicus [4]
  minimal effective dose: > 10 mg/kg
Rattus norvegicus [5]
  minimal effective dose: > 30 mg/kg
[6]
  pIC50: 7.40

## O=C(Nc1ccccc1F)C1=C(O)CCn2c1nc1c(F)c(F)ccc12
[1]
  GS: 1.7
Mus musculus [2]
  ED50: 0.2 mg/kg
Mus musculus [3]
  ED50: 0.2 mg/kg
Rattus norvegicus [5]
  minimal effective dose: 10 mg/kg
[6]
  pIC50: 8.85

## O=C(Nc1ccccc1F)C1=C(O)CCn2c1nc1c(Cl)cccc12
[1]
  GS: 1.8
Mus musculus [2]
  ED50: 1 mg/kg
Mus musculus [3]
  ED50: > 30 mg/kg
Rattus norvegicus [4]
  minimal effective dose: 10 mg/kg
Rattus norvegicus [5]
  minimal effective dose: > 10 mg/kg
[6]
  pIC50: 8.15

## COc1cccc2c1nc1n2CCC(O)=C1C(=O)Nc1c(F)cccc1F
[1]
  GS: 3.7
[6]
  pIC50: 6.81

## O=C(Nc1ccccc1)C1=C(O)CCn2c1nc1cccnc12
[1]
  GS: 2.1
Mus musculus [2]
  ED50: > 10 mg/kg
Mus musculus [3]
  ED50: > 10 mg/kg
Rattus norvegicus [4]
  minimal effective dose: > 10 mg/kg
Rattus norvegicus [5]
  minimal effective dose: > 30 mg/kg
[6]
  pIC50: 5.36

## O=C(Nc1ccccc1F)C1=C(O)CCn2c1nc1cc3ccccc3cc12
[1]
  GS: 1
Mus musculus [2]
  ED50: 1 mg/kg
Mus musculus [3]
  ED50: > 30 mg/kg
Rattus norvegicus [4]
  minimal effective dose: 10 mg/kg
Rattus norvegicus [5]
  minimal effective dose: > 10 mg/kg
[6]
  pIC50: 7.77

## O=C(Nc1ccccc1F)C1=C(O)CCn2c1nc1ccc3ccccc3c12
Mus musculus [2]
  ED50: > 1 mg/kg
Mus musculus [3]
  ED50: > 30 mg/kg
Rattus norvegicus [5]
  minimal effective dose: > 10 mg/kg
[6]
  pIC50: < 6.00

## O=C(Nc1ccccc1F)C1=C(O)CCn2c1nc1cc(Cl)ccc12
[1]
  GS: 1.8
Mus musculus [2]
  ED50: 1 mg/kg
Mus musculus [3]
  ED50: ~30 mg/kg
Rattus norvegicus [4]
  minimal effective dose: 10 mg/kg
Rattus norvegicus [5]
  minimal effective dose: > 10 mg/kg
[6]
  pIC50: 8.29

## O=C(Nc1ccccc1F)C1=C(O)CCn2c1nc1ncccc12
[1]
  GS: 2.7
Mus musculus [2]
  ED50: 1 mg/kg
Mus musculus [3]
  ED50: 10 mg/kg
Rattus norvegicus [4]
  minimal effective dose: 10 mg/kg
Rattus norvegicus [5]
  minimal effective dose: > 30 mg/kg
[6]
  pIC50: 8.46

## Cc1cccc2c1nc1n2CCC(O)=C1C(=O)Nc1ccccc1F
[1]
  GS: 1.5
Mus musculus [2]
  ED50: 1 mg/kg
Mus musculus [3]
  ED50: 10 mg/kg
Rattus norvegicus [4]
  minimal effective dose: 10 mg/kg
Rattus norvegicus [5]
  minimal effective dose: > 30 mg/kg
[6]
  pIC50: 7.02

## O=C(Nc1c(F)cccc1F)C1=C(O)CCn2c1nc1cc(F)ccc12
[1]
  GS: 2.2
Mus musculus [2]
  ED50: 0.3 mg/kg
Mus musculus [3]
  ED50: 3 mg/kg
Rattus norvegicus [4]
  minimal effective dose: 3 mg/kg
Rattus norvegicus [5]
  minimal effective dose: 3 mg/kg
[6]
  pIC50: 8.20

## O=C(Nc1ccccc1F)C1=C(O)CCn2c1nc1c(F)cc(F)cc12
[1]
  GS: 1.2
Mus musculus [2]
  ED50: > 1 mg/kg
Mus musculus [3]
  ED50: > 1 mg/kg
Rattus norvegicus [5]
  minimal effective dose: > 10 mg/kg
[6]
  pIC50: 7.70
